Assays:
[1] = test system: MiaPaca-2 (expressing KRAS G12C mutant); assay: Proliferation Assay (Cell Viability Assay); format: cell-based; settings: Homo sapiens, MIA PaCa-2; read-out: Proliferation in MiaPaca-2: IC50
Procedure, shortened: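 MiaPaca-2 cells (KRAS G12C) were grown in DMEM-high glucose with 10% FBS, seeded at 2000–5000 cells/well and cultured overnight. Compounds were added at 10 μM final, or as serial dilutions for IC50, in 0.3% DMSO/10% FBS for 2–4 days at 37 °C, 5% CO2. Viability was measured with CellTiter 96 Aqueous One and % inhibition calculated.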

[2] = test system: Smad2/Smad3 phosphorylation; assay: Phospho-Smad2/3 Inhibition Assay (western blot), Panc-1; format: cell-based, human; settings: at 10 μM, Panc-1 pancreatic cancer cell line; starred symbols = activation
Procedure, shortened: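 Panc-1 cells (KRas G12D), starved overnight in 0.5% FBS, treated 3 h at 37° C with compound at 10 μM final (0.3% DMSO) or serial dilutions for IC50, then stimulated with 10 ng/ml TGF-b1 for 1 h. Phospho-Smad2 (Ser465/467) and phospho-Smad3 (Ser423/425) detected by western blot.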

SMILES	IC50 [1]	% inh of Smad2/3 phosphorylation in Panc-1 [2]
COc1ccc(-c2cn3nc(-c4nccn4C)nc(Nc4cc(OC)ncn4)c3c2C)cn1 [Compound 66, 6-(6-Methoxypyridin-3-yl)-N-(6-methoxypyrimidin-4-yl)-5-methyl-2-(1-methyl-1H-imidazol-2-yl)pyrrolo[2,1-f][1,2,4]triazin-4-amine]	> 1 µM	A* (A* = 1-25% activation)
Cc1c(-c2ccn(C)n2)cn2nc(-c3nccn3C)nc(Nc3ccc(-c4ccccn4)cn3)c12 [Compound 249, N-([2,3′-Bipyridin]-6′-yl)-5-methyl-2-(1-methyl-1H-imidazol-2-yl)-6-(1-methyl-1H-pyrazol-3-yl)pyrrolo[2,1-f][1,2,4]triazin-4-amine]	< 0.15 µM	0 (0 = 0% inhibition)
Cc1c(-c2ccn(C)n2)cn2nc(-c3nccn3C)nc(Oc3cc(N)[nH]n3)c12 [Compound 262, 3-((5-Methyl-2-(1-methyl-1H-imidazol-2-yl)-6-(1-methyl-1H-pyrazol-3-yl)pyrrolo[2,1-f][1,2,4]triazin-4-yl)oxy)-1H-pyrazol-5-amine]	> 1 µM	B* (B* = 26-45% activation)
Cc1c(-c2ccn(C)n2)cn2nc(-c3nccn3C)nc(Nc3cc(-c4ccccn4)[nH]n3)c12 [Compound 265, 5-Methyl-2-(1-methyl-1H-imidazol-2-yl)-6-(1-methyl-1H-pyrazol-3-yl)-N-(5-(pyridin-2-yl)-1H-pyrazol-3-yl)pyrrolo[2,1-f][1,2,4]triazin-4-amine]	< 0.15 µM	A (A = 1-25% inhibition)
Cc1c(-c2ccn(C)n2)cn2nc(-c3nccn3C)nc(Nc3cc(C4CCC4)[nH]n3)c12 [Compound 257, N-(5-Cyclobutyl-1H-pyrazol-3-yl)-5-methyl-2-(1-methyl-1H-imidazol-2-yl)-6-(1-methyl-1H-pyrazol-3-yl)pyrrolo[2,1-f][1,2,4]triazin-4-amine]	0.15 to 0.5 µM	D* (D* = 76-100% activation)
COC1CCCN(c2nc(-c3ccccn3)nn3cc(-c4ccn(C(C)C)n4)c(-c4ccccc4)c23)C1 (racemic) [Compound 27, rac 6-(1-Isopropyl-1H-pyrazol-3-yl)-4-(3-methoxypiperidin-1-yl)-5-phenyl-2-(pyridin-2-yl)pyrrolo[2,1-f][1,2,4]triazine]	> 1 µM	D (D = 76-100% inhibition)
Cc1c(-c2ccn(C)n2)cn2nc(-c3nccn3C)nc(Nc3cc(C(F)F)[nH]n3)c12 [Compound 258, N-(5-(Difluoromethyl)-1H-pyrazol-3-yl)-5-methyl-2-(1-methyl-1H-imidazol-2-yl)-6-(1-methyl-1H-pyrazol-3-yl)pyrrolo[2,1-f][1,2,4]triazin-4-amine]	> 1 µM	A* (A* = 1-25% activation)
Cc1c(-c2ccn(C(C)C)n2)cn2nc(-c3nccn3C)nc(Nc3ncco3)c12 [Compound 60, N-(6-(1-Isopropyl-1H-pyrazol-3-yl)-5-methyl-2-(1-methyl-1H-imidazol-2-yl)pyrrolo[2,1-f][1,2,4]triazin-4-yl)oxazol-2-amine]	> 1 µM	C (C = 46-75% inhibition)
COCCCNc1nc(-c2nccn2C)nn2cc(-c3cccc(OC)c3Cl)c(-c3ccccc3)c12 [Compound 30, 6-(2-Chloro-3-methoxyphenyl)-N-(3-methoxypropyl)-2-(1-methyl-1H-imidazol-2-yl)-5-phenylpyrrolo[2,1-f][1,2,4]triazin-4-amine]	0.51 to 1 µM	D (D = 76-100% inhibition)
COc1cccc(Nc2nc(-c3nccn3C)nn3ccc(-c4ccccc4)c23)n1 [Compound 40, N-(6-Methoxypyridin-2-yl)-2-(1-methyl-1H-imidazol-2-yl)-5-phenylpyrrolo[2,1-f][1,2,4]triazin-4-amine]	> 1 µM	B (B = 26-45% inhibition)
Cc1c(-c2ccn(C(C)C)n2)cn2nc(-c3nccn3C)nc(Nc3ccn(C)n3)c12 [Compound 61, 6-(1-Isopropyl-1H-pyrazol-3-yl)-5-methyl-2-(1-methyl-1H-imidazol-2-yl)-N-(1-methyl-1H-pyrazol-3-yl)pyrrolo[2,1-f][1,2,4]triazin-4-amine]	0.51 to 1 µM	B (B = 26-45% inhibition)
COc1cc(Nc2nc(-c3nccn3C)nn3cc(-c4ccn(C)n4)c(C)c23)nn1C [Compound 253, N-(5-Methoxy-1-methyl-1H-pyrazol-3-yl)-5-methyl-2-(1-methyl-1H-imidazol-2-yl)-6-(1-methyl-1H-pyrazol-3-yl)pyrrolo[2,1-f][1,2,4]triazin-4-amine]	0.51 to 1 µM	A* (A* = 1-25% activation)
Cc1c(-c2ccn(C)n2)cn2nc(-c3nccn3C)nc(Nc3cc(-n4ccnc4)ccn3)c12 [Compound 245, N-(4-(1H-imidazol-1-yl)pyridin-2-yl)-5-methyl-2-(1-methyl-1H-imidazol-2-yl)-6-(1-methyl-1H-pyrazol-3-yl)pyrrolo[2,1-f][1,2,4]triazin-4-amine]	< 0.15 µM	B* (B* = 26-45% activation)
CO[C@H]1CC[C@@H](Nc2nc(-c3nccn3C)nn3cc(-c4ccn(C(C)C)n4)c(C(C)C)c23)C1 (racemic) [Compound 36, rac 5-Isopropyl-6-(1-isopropyl-1H-pyrazol-3-yl)-N-((1R,3S)-3-methoxycyclopentyl)-2-(1-methyl-1H-imidazol-2-yl)pyrrolo[2,1-f][1,2,4]triazin-4-amine]	> 1 µM	D (D = 76-100% inhibition)
COc1cnc(Nc2nc(-c3nccn3C)nn3cc(-c4ccn(C(C)C)n4)c(C)c23)nc1 [Compound 56, 6-(1-Isopropyl-1H-pyrazol-3-yl)-N-(5-methoxypyrimidin-2-yl)-5-methyl-2-(1-methyl-1H-imidazol-2-yl)pyrrolo[2,1-f][1,2,4]triazin-4-amine]	0.15 to 0.5 µM	D* (D* = 76-100% activation)
COc1ccnc(Nc2nc(-c3nccn3C)nn3cc(-c4ccn(C(C)C)n4)c(C)c23)n1 [Compound 53, 6-(1-Isopropyl-1H-pyrazol-3-yl)-N-(4-methoxypyrimidin-2-yl)-5-methyl-2-(1-methyl-1H-imidazol-2-yl)pyrrolo[2,1-f][1,2,4]triazin-4-amine]	< 0.15 µM	B (B = 26-45% inhibition)
Cc1c(-c2ccn(C)n2)cn2nc(-c3nccn3C)nc(Nc3cc(OC(F)F)n(C)n3)c12 [Compound 254, N-(5-(Difluoromethoxy)-1-methyl-1H-pyrazol-3-yl)-5-methyl-2-(1-methyl-1H-imidazol-2-yl)-6-(1-methyl-1H-pyrazol-3-yl)pyrrolo[2,1-f][1,2,4]triazin-4-amine]	> 1 µM	B* (B* = 26-45% activation)
Cc1c(-c2ccn(C(C)C)n2)cn2nc(-c3nccn3C)nc(Nc3cc(C4CC4)no3)c12 [Compound 69, 3-Cyclopropyl-N-(6-(1-isopropyl-1H-pyrazol-3-yl)-5-methyl-2-(1-methyl-1H-imidazol-2-yl)pyrrolo[2,1-f][1,2,4]triazin-4-yl)isoxazol-5-amine]	> 1 µM	A (A = 1-25% inhibition)
Cc1c(-c2ccn(C)n2)cn2nc(-c3nccn3C)nc(Nc3cc(-c4ccccn4)ccn3)c12 [Compound 248, N-([2,4′-Bipyridin]-2′-yl)-5-methyl-2-(1-methyl-1H-imidazol-2-yl)-6-(1-methyl-1H-pyrazol-3-yl)pyrrolo[2,1-f][1,2,4]triazin-4-amine]	< 0.15 µM	D* (D* = 76-100% activation)
Cc1c(-c2ccn(C)n2)cn2nc(-c3nccn3C)nc(Nc3cc(-c4ccncc4)[nH]n3)c12 [Compound 266, 5-Methyl-2-(1-methyl-1H-imidazol-2-yl)-6-(1-methyl-1H-pyrazol-3-yl)-N-(5-(pyridin-4-yl)-1H-pyrazol-3-yl)pyrrolo[2,1-f][1,2,4]triazin-4-amine]	< 0.15 µM	D* (D* = 76-100% activation)
CCOc1cc(Nc2nc(-c3nccn3C)nn3cc(-c4ccn(C)n4)c(C)c23)n[nH]1 [Compound 260, N-(5-Ethoxy-1H-pyrazol-3-yl)-5-methyl-2-(1-methyl-1H-imidazol-2-yl)-6-(1-methyl-1H-pyrazol-3-yl)pyrrolo[2,1-f][1,2,4]triazin-4-amine]	> 1 µM	A* (A* = 1-25% activation)
COC[C@@H]1CC[C@@H]1CNc1nc(-c2ccccn2)nn2cc(-c3ccn(C(C)C)n3)c(-c3ccccc3)c12 (racemic) [Compound 26, rac 6-(1-Isopropyl-1H-pyrazol-3-yl)-N-(((1S,2R)-2-(methoxymethyl)cyclobutyl)methyl)-5-phenyl-2-(pyridin-2-yl)pyrrolo[2,1-f][1,2,4]triazin-4-amine]	0.51 to 1 µM	C (C = 46-75% inhibition)
Cc1c(-c2ccn(C(C)C)n2)cn2nc(-c3nccn3C)nc(Nc3ccncn3)c12 [Compound 55, 6-(1-Isopropyl-1H-pyrazol-3-yl)-5-methyl-2-(1-methyl-1H-imidazol-2-yl)-N-(pyrimidin-4-yl)pyrrolo[2,1-f][1,2,4]triazin-4-amine]	< 0.15 µM	D (D = 76-100% inhibition)

Reference: patent US12459951B2, “Compounds that interact with RAS superfamily proteins for treatment of cancers, inflammatory diseases, rasopathies, and fibrotic disease” (SHY Therapeutics, LLC, priority 2022, dated 2025)
